From patent US20180148418A1, “AMIDO-SUBSTITUTED CYCLOHEXANE DERIVATIVES” (Bayer Pharma Aktiengesellschaft, priority 2015, published 2018)

Biological target: T1, TNKS1 (Homo sapiens, UniProt O95271)
T1 construct: purchased BPS Bioscience, San Diego, USA 80579 (TNKS1 Histone Ribosylation Assay Kit)
T1 sequence (O95271 1-1327): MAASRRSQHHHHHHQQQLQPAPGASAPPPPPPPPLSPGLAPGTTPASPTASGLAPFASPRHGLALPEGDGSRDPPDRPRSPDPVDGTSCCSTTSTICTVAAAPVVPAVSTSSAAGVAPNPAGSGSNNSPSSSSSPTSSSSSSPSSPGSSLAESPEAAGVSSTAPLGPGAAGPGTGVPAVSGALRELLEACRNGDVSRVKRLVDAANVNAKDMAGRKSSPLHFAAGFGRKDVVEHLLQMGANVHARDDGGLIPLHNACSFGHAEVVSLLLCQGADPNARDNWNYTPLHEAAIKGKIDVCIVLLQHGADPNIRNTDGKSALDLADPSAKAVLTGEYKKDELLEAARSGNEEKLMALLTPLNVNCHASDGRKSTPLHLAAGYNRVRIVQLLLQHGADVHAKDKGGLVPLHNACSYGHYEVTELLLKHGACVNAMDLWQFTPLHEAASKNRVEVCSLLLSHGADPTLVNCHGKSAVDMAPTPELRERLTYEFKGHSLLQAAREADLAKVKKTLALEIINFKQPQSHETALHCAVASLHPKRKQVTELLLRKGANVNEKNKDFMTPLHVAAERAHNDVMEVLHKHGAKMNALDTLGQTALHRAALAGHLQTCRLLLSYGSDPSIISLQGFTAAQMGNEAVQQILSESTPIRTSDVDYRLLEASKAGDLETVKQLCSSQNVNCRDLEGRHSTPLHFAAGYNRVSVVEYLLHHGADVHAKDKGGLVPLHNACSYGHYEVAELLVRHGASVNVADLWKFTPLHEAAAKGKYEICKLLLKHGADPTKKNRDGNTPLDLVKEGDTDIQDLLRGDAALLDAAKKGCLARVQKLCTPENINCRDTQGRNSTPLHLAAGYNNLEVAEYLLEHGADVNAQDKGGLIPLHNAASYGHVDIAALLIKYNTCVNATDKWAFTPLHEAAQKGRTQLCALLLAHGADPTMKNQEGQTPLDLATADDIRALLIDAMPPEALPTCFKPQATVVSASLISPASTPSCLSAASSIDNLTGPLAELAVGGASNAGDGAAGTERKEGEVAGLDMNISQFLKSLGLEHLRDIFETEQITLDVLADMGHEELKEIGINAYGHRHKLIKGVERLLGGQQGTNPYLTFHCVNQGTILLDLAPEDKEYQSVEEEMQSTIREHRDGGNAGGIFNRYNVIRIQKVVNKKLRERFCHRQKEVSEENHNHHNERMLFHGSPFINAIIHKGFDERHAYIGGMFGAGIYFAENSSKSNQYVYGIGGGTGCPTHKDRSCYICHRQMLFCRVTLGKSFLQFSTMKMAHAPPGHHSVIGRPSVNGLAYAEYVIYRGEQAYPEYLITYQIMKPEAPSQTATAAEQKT
Experiment: TNKS1 Assay B (auto-parsylation, [3H]-NAD+ SPA)
Assay type: biochemical
Conditions: 6 nM TNKS1, auto-parsylation, over night at room temperature

Row | SMILES | IC50 [nM]
1 | COC(=O)c1cc(C)nc2c(C(=O)N[C@H]3CC[C@H](C(=O)Nc4c(F)cc(F)cc4Cl)CC3)cnn12 [Example 351, methyl 3-({trans-4-[(2-chloro-4,6-difluorophenyl)carbamoyl]cyclohexyl}carbamoyl)-5-methylpyrazolo[1,5-a]pyrimidine-7-carboxylate] | 150
2 | COC(=O)c1cc(C)nc2c(C(=O)N[C@H]3CC[C@H](C(=O)Nc4ccc(F)cc4Cl)CC3)cnn12 [Example 352, methyl 3-({trans-4-[(2-chloro-4-fluorophenyl)carbamoyl]cyclohexyl}carbamoyl)-5-methylpyrazolo[1,5-a]pyrimidine-7-carboxylate] | 350
3 | Cc1c(C(C)(C)O)cnc2c(C(=O)N[C@H]3CC[C@H](C(=O)Nc4ccc(F)cc4Cl)CC3)cnn12 [Example 359, N-{trans-4-[(2-chloro-4-fluorophenyl)carbamoyl]cyclohexyl}-6-(2-hydroxypropan-2-yl)-7-methylpyrazolo[1,5-a]pyrimidine-3-carboxamide] | > 10000
4 | O=C(N[C@H]1CC[C@H](C(=O)Nc2ccc(F)cc2Cl)CC1)c1cnc2ccc(O)nn12 [Example 360, N-{trans-4-[(2-chloro-4-fluorophenyl)carbamoyl]cyclohexyl}-6-hydroxyimidazo[1,2-b]pyridazine-3-carboxamide] | 2500
5 | Cc1nc2c(C(=O)N[C@H]3CC[C@H](C(=O)Nc4c(F)cc(F)cc4Cl)CC3)cnn2c2c1CCC2 [Example 363, N-{trans-4-[(2-chloro-4,6-difluorophenyl)carbamoyl]cyclohexyl}-5-methyl-7,8-dihydro-6H-cyclopenta[e]pyrazolo[1,5-a]pyrimidine-3-carboxamide] | 57

Results, then the compound that gave them:

Row | IC50 [nM] | SMILES
6 | 6.1 | O=C(N[C@H]1CC[C@@]2(CCN(c3cc(F)c(F)cc3Cl)C2=O)CC1)c1cnc2cccnn12 [Example 298, N-[(trans)-2-(2-chloro-4,5-difluorophenyl)-1-oxo-2-azaspiro[4.5]dec-8-yl]imidazo[1,2-b]pyridazine-3-carboxamide]
7 | 7.1 | Cc1cc(C)n2ncc(C(=O)N[C@H]3CC[C@@]4(CCN(c5cc(F)c(F)cc5Cl)C4=O)CC3)c2n1 [Example 299, N-[(trans)-2-(2-chloro-4,5-difluorophenyl)-1-oxo-2-azaspiro[4.5]dec-8-yl]-5,7-dimethylpyrazolo[1,5-a]pyrimidine-3-carboxamide]
8 | 94 | Cc1cc(N2CCC[C@]3(CC[C@@H](NC(=O)c4cnn5cccnc45)CC3)C2=O)c(Cl)cc1F [Example 300, N-[(trans)-2-(2-chloro-4-fluoro-5-methylphenyl)-1-oxo-2-azaspiro[5.5]undec-9-yl]pyrazolo[1,5-a]pyrimidine-3-carboxamide]
9 | 130 | Cc1cc(N2CCC[C@]3(CC[C@@H](NC(=O)c4cnc5cccnn45)CC3)C2=O)c(Cl)cc1F [Example 301, N-[(trans)-2-(2-chloro-4-fluoro-5-methylphenyl)-1-oxo-2-azaspiro[5.5]undec-9-yl]imidazo[1,2-b]pyridazine-3-carboxamide]
10 | 170 | Cc1cc(C)n2ncc(C(=O)N[C@H]3CC[C@@]4(CCCN(c5cc(C)c(F)cc5Cl)C4=O)CC3)c2n1 [Example 302, N-[(trans)-2-(2-chloro-4-fluoro-5-methylphenyl)-1-oxo-2-azaspiro[5.5]undec-9-yl]-5,7-dimethylpyrazolo[1,5-a]pyrimidine-3-carboxamide]
11 | 12 | COCCNC(=O)c1nc[nH]c1C(=O)N[C@H]1CC[C@@]2(CCN(c3cc(C)c(F)cc3Cl)C2=O)CC1 [Example 334, N^5-[(trans)-2-(2-chloro-4-fluoro-5-methylphenyl)-1-oxo-2-azaspiro[4.5]dec-8-yl]-N^4-(2-methoxyethyl)-1H-imidazole-4,5-dicarboxamide]
